These are literature values, as cited in patent US20110117194A1, “PHARMACEUTICAL FORMULATION CONTAINING ANGIOTENSIN-II RECEPTOR BLOCKER” (priority 2008, published 2011).

A value given as a limit tells only on which side of the number the result lay.

In the case of `CCCCc1nc(Cl)c(CO)n1Cc1ccc(-c2ccccc2-c2nn[nH]n2)cc1` [losartan], for the setting “active losartan molecule released into blood”, the “time to peak blood concentration” value is ≤ 1 h. Moreover, for the setting “in vivo”, the plasma clearance rate is on record as 600 mL/min.
